Experimental data: patent US20120088247A1, “MATERIALS AND METHODS FOR TREATING PATIENTS WITH TAXOXIFEN” (Indian University Research & Technology Corporatio, priority 2009, published 2012)

Assays:
[1] = literature refs [18],[19]; cited from earlier work
[2] = Plasma concentrations of tamoxifen and its metabolites (HPLC) in women with breast cancer taking tamoxifen, by UGT2B7 genotype and CYP2D6 score
Description: Patients. […] Subjects for the registry were recruited from the Breast Oncology Program at the University of Michigan Comprehensive Cancer Center and the Indiana University Cancer Center. […] Patients were enrolled after they had completed all primary surgery, radiation, and adjuvant chemotherapy. Specimens and data from this registry has been sed for several other studies, as reported previously,[16],[6],[17].
Study design. […] At the indicated time points, medical histories, including a comprehensive list of current medications, were obtained, and blood samples (5 mL) were drawn. […] Blood was collected in heparin tubes, and plasma was separated within 1 hour of blood collection by centrifugation at 2060×g. All samples (plasma and whole blood) were transferred to cryogenic vials (Corning, Cambridge, Mass.), shipped to the laboratory of the Division of Clinical Pharmacology, Indiana University, on dry ice, and stored at −80° C. until analysis.
UGT 2B7 genotyping. Genomic deoxyribonucleic acid (DNA) was extracted from the leukocyte portion of whole blood by use of a QJAamp DNA Blood Mini Kit (Qiagen, Valencia, Calif.) and used for genotyping of UGT2B7 variants. UGT2B7 codon 268 genotypes were determined by real-time PCR assays using the TaqMan Drug Metabolism Genotyping Assay C—32449742—20 (Applied Biosystems, Foster City, Calif.) in the ABI 7900HT sequence detection system equipped with an autoloader in the Functional Genomics Core Facility at the Penn State College of Medicine. […] The same primers were used for both PCR and sequencing: sense, 5′-[…]-3′ (SEQ ID. No. 3), located +642-+670 from the UGT2B7 translation start site); and antisense, 5′-[…]-3′ (SEQ. ID. No. 4), located +1555-+1597 from the UGT2B7 translation start site.
CYP2D6 genotyping. Genomic DNA was extracted from whole blood. CYP2D6 genotyping was conducted using two different genotyping methods: The AmpliChip CYP450 Test (Roche Diagnostics, Indianapolis, Ind.) and the Luminex CYP450C CYP2D6 assay (TM Biosciences). The AmpliChip was used for 129 of the DNA samples. It tests for 33 CYP2D6 alleles (ie, *1 to *10AB, *11, *14A, *14B, *15, *17, *19, *20, *25, *26, *29 to *31, *35, *36, *40, *41, *1N, *2xN, *4xN, *10xN, *17xN, *35xN, and *41xN). The remaining 60 samples were genotyped using the Luminex CYP450 Test. It tests for 16 CYP2D6 alleles (ie, *2 through *12, *14, *15, *17, and *41). The genotypes of approximately 10-20% of the samples were confirmed by running both assays or by using independent Taqman or restriction fragment length polymorphism (RFLP) assays.
CYP2D6 Gene Score. The CYP2D6 alleles were assigned a value that reflects the expected relative activity of the CYP2D6 enzyme for which they code. Accordingly, fully functional CYP2D6 alleles (e.g. *1, *2, *33, *35) were assigned a score of 1. CYP2D6 alleles associated with reduced enzyme activity (e.g. *9,*10, *17, *29, *37, *41, *45, *46) were scored as 0.5.
CYP2D6 Inhibition Factor and CYP2D6 Activity Score. After calculating the expected activity of the CYP2D6 enzyme according to the genotype, the possible effects of known CYP2D6 inhibitors on the performance of the CYP2D6 protein were incorporated. […] This rule defines the CYP2D6 inhibition factor. The CYP2D6 Activity Score is expressed as the product of multiplying the CYP2D6 Gene Score by the Inhibitor factor, which is defined in the following equation: activity score=(gene score×inhibition factor),
In presenting CYP2D6 activity score data, an extensive metabolizer (EM) was defined as an individual with an activity score greater than 2; a poor metabolizer (PM) was defined with an activity score less than 1; and an intermediate metabolizer (IM) as an individual who has a score between 1 and 2.

CC/C(=C(\c1ccccc1)c1ccc(OCCN(C)C)cc1)c1ccccc1 [tamoxifen, Tamoxifen]
half-life [1]: 120 to 170 h

CC/C(=C(\c1ccccc1)c1ccc(OCCNC)cc1)c1ccccc1 [N-desmethyl-tamoxifen]
Association of plasma concentration with UGT2B7 genotype ([2]; FIG. 1, P<0.05 considered significant): not significantly associated | Mean plasma concentration, percent larger in the *2/*2 group ([2]; UGT2B7 *2/*2 group (FIG. 1A, 1D)): 42%

CC/C(=C(\c1ccc(O)cc1)c1ccc(OCCNC)cc1)c1ccccc1 [endoxifen, 4-hydroxy-N-desmethyl-tamoxifen]
Increase in concentration due to gene-gene interaction ([2]; female, human, in vivo): 220% | Increase in endoxifen concentration ([2]; female, human, in vivo): 58% | Mean plasma endoxifen concentration, percent higher in UGT2B7*2/*2 group than in each of *1/*2 and *1/*1 groups ([2]; female, human, in vivo): 34% | Range of mean plasma endoxifen concentration by compound UGT2B7 genotype and CYP2D6 score ([2]; female, human, in vivo): 12 to 100 nM | Range of mean plasma endoxifen concentration over combined UGT2B7 genotype and CYP2D6 score groups ([2]; female, human, in vivo): 19 to 107 nM | Association of plasma concentration with UGT2B7 genotype ([2]; in vivo): significant
